Results taken from PubChem BioAssay (NCI).
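Five compound concentrations were applied to cells in 96-well plates for 48 hours; endpoints were derived by simple linear interpolation of the resulting dose-response curve. GI50: concentration for 50% inhibition of growth. Definition used: TGI = concentration required for complete inhibition of growth.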

Legend:
Assay in all cases: DTP human tumour cell line panel, 48 h
[1] = system: U251 CNS
[2] = system: LOX IMVI melanoma
[3] = system: HCC-2998 colon
[4] = system: SN12C renal
[5] = system: NCI-H460 lung
[6] = system: SF-539 CNS
[7] = system: HOP-92 NSCLC
[8] = system: SK-MEL-5 melanoma
[9] = system: UO-31 renal
[10] = system: HCT-15 colon

| Structure (SMILES) | GI50 [1] | TGI [1] | GI50 [2] | TGI [2] | GI50 [3] | TGI [3] | GI50 [4] | TGI [4] | GI50 [5] | TGI [5] | GI50 [6] | TGI [6] | GI50 [7] | TGI [7] | GI50 [8] | TGI [8] | GI50 [9] | TGI [9] | GI50 [10] | TGI [10] |
| --- | --- | --- | --- | --- | --- | --- | --- | --- | --- | --- | --- | --- | --- | --- | --- | --- | --- | --- | --- | --- |
| CC[C@H](CO)Nc1nc(NCc2ccccc2)n2ncc(C(C)C)c2n1 | 1.4 µM | 10.5 µM | 1.07 µM | 10.3 µM | 1.2 µM | 3.27 µM | 2.41 µM | 14.4 µM | 1.05 µM | 10.9 µM | 1.22 µM | 3.62 µM | 1.67 µM | 7.1 µM | 1.78 µM | 4.96 µM | 1.59 µM | > 100 µM | 0.872 µM | 10.5 µM |
| Cc1ccc(S(=O)(=O)Nc2cccc3[nH]c(C(F)(F)F)nc23)cc1 | 0.466 µM | 21.4 µM | 0.829 µM | > 100 µM | 2.89 µM | 40.3 µM | 2.72 µM | > 89.2 µM | 0.398 µM | > 38.4 µM | 0.427 µM | 2.06 µM | 0.957 µM | 9.32 µM | 0.429 µM | 3.98 µM | 1.3 µM | > 57.5 µM | 0.408 µM | > 100 µM |
| COc1c2c(nc3ccccc13)-c1cc3c(c(=O)n1C2)COC(=O)C3(O)CC(=O)N1CCOCC1 (stereo not drawn) |  | 6.92 µM |  | 16.5 µM |  | 75.8 µM |  | 25.4 µM |  | 30.9 µM |  | 5.8 µM |  | 63.4 µM |  | 23 µM |  | 68.9 µM |  | > 100 µM |
| CN(/N=C/c1cccc2cccnc12)c1ccccc1 |  | > 100 µM |  | > 100 µM |  | > 100 µM |  | > 100 µM |  | > 100 µM |  | > 100 µM |  | > 100 µM |  | > 100 µM |  | > 100 µM |  | > 100 µM |
| O=C(Nc1cccc(NC(=O)Nc2cc(C(F)(F)F)ccc2Cl)c1)Nc1cc(C(F)(F)F)ccc1Cl | 1.93 µM | 7.91 µM | 3.47 µM | 15.4 µM | 6.72 µM | > 100 µM | 2.56 µM | 23.9 µM | 2.22 µM | 10.5 µM | 6.15 µM | 32 µM | 1.99 µM | 5.06 µM | 3.2 µM | 65.6 µM | 2.49 µM | 14.7 µM | 0.566 µM | > 100 µM |
| CS[C@]12C(=O)C[C@@]3(C)[C@@H](CC[C@]3(O)C(=O)CO)[C@@H]1CCC1=CC(=O)CC[C@@]12C |  | > 100 µM |  | > 100 µM |  | 80.2 µM |  | > 100 µM |  | > 100 µM |  | > 100 µM |  | > 100 µM |  | > 100 µM |  | > 100 µM |  | > 100 µM |
| C[C@]12CCC3[C@@H](CC[C@@H]4c5nonc5CC[C@]34C)C1C/C(=N/O)C2=O (stereo partly drawn) |  | > 100 µM |  | > 100 µM |  |  |  | > 100 µM |  | > 100 µM |  | > 100 µM |  | > 100 µM |  | > 100 µM |  | > 100 µM |  | > 100 µM |
| CC[N+]1(C)CCC(O)(c2ccc(Cl)c(Cl)c2)C(C(=O)c2ccc(Cl)c(Cl)c2)C1 (stereo not drawn) |  | > 10 µM |  | > 10 µM |  | > 10 µM |  | > 10 µM |  | > 10 µM |  | > 10 µM |  | > 10 µM |  | > 10 µM |  | > 10 µM |  | > 10 µM |
| COC(=O)CCC(NC(=S)N/N=C/c1ccco1)C(=O)OC (stereo not drawn) |  | > 100 µM |  | > 100 µM |  | > 100 µM |  | > 100 µM |  | > 100 µM |  | > 100 µM |  |  |  | > 100 µM |  | > 100 µM |  | > 100 µM |
| O=S1(=O)OCCOS(=O)(=O)C1Cc1ccccc1 |  | > 100 µM |  | > 100 µM |  | 45.4 µM |  | > 100 µM |  | > 100 µM |  | 95.6 µM |  | > 100 µM |  |  |  | > 100 µM |  |  |
| CCc1cccc(C)c1NC(=O)C(=O)Cc1nc2ccccc2s1 |  | > 100 µM |  |  |  | > 100 µM |  | > 100 µM |  | > 100 µM |  | > 100 µM |  | 5.88 µM |  | > 100 µM |  | > 100 µM |  |  |
| COc1ccc(C(=O)C(c2ccc(OC)cc2)C2(O)C(=O)Nc3c2ccc(Cl)c3C)cc1 (stereo not drawn) |  | > 100 µM |  | > 100 µM |  | > 100 µM |  | > 100 µM |  | > 100 µM |  |  |  |  |  | > 100 µM |  | > 100 µM |  | > 100 µM |
| C/C(CC(=O)Nc1ccc(Cl)cc1)=N\NC(N)=S |  | > 100 µM |  | > 100 µM |  | 75.7 µM |  |  |  | > 100 µM |  | > 100 µM |  | > 100 µM |  | > 100 µM |  |  |  |  |
| C=C1C(=O)OC2C1C(OC(=O)/C(C)=C/C)CC(O)(CCl)C1C(O)C3OC3(C)C21O (stereo not drawn) |  | > 50 µM |  | > 50 µM |  | > 50 µM |  | > 50 µM |  | > 50 µM |  | > 50 µM |  | > 50 µM |  | > 50 µM |  |  |  | > 50 µM |
| CCOC(=O)NC(=O)c1cn(CCCCCCOC(=O)NCCCCCCNC(=O)OCCCCCCn2cc(C(=O)NC(=O)OCC)c(=O)[nH]c2=O)c(=O)[nH]c1=O |  | > 100 µM |  | > 100 µM |  | > 100 µM |  | > 100 µM |  | > 100 µM |  | > 100 µM |  |  |  | > 100 µM |  | > 100 µM |  | > 100 µM |
| COc1cc(/C=C2\Sc3scc(-c4cccc([N+](=O)[O-])c4)[n+]3C2=O)cc(OC)c1OC |  | 26.3 µM |  | 24.1 µM |  | 27.5 µM |  | 42.5 µM |  | 24.2 µM |  | 24.2 µM |  | 73.9 µM |  | 17.8 µM |  | 19 µM |  |  |
| CC(C)c1cccc2sc(NC(=O)C(=O)C(C#N)c3cccc4ccccc34)nc12 (stereo not drawn) |  | > 100 µM |  |  |  | > 100 µM |  | > 100 µM |  | > 100 µM |  | > 100 µM |  | 97.9 µM |  | > 100 µM |  | > 100 µM |  | > 100 µM |
| CC1=C(CO)C(=O)O[C@@H]([C@@H](C)[C@H]2CC[C@H]3[C@@H]4C[C@@H](O)[C@@]5(O)CC=CC(=O)[C@]5(C)[C@H]4CC[C@]23C)C1 |  | > 100 µM |  | > 100 µM |  | > 100 µM |  | > 100 µM |  | 38.3 µM |  | > 100 µM |  | > 100 µM |  | > 100 µM |  |  |  | 32.5 µM |
| COc1ccc(/C=N/N=C(\N)NO)c(OC)c1 |  | > 100 µM |  | > 100 µM |  | 43.7 µM |  | > 100 µM |  |  |  | > 100 µM |  | > 100 µM |  | > 100 µM |  | > 100 µM |  | > 100 µM |
